{
  "source": "ChEMBL document CHEMBL1629525",
  "about": "“Synthesis and characterization of 1,3-dihydro-benzo[b][1,4]diazepin-2-one derivatives: Part 4. In vivo active potent and selective non-competitive metabotropic glutamate receptor 2/3 antagonists” (Bioorg Med Chem Lett, 2010)",
  "key": {"[1]": {"assay": "Half life in rat at 2.5 mg/kg, iv", "assay_type": "ADME, organism-based", "design": "dose 2.5 mg/kg, route intravenous", "conditions": "in vivo"}, "[2]": {"assay": "Clearance in rat at 2.5 mg/kg, iv", "assay_type": "ADME, organism-based", "design": "dose 2.5 mg/kg, route intravenous", "conditions": "in vivo"}, "[3]": {"molecular_target": "Metabotropic glutamate receptor 2 (Homo sapiens, UniProt Q14416)", "sequence (Q14416 whole entry)": "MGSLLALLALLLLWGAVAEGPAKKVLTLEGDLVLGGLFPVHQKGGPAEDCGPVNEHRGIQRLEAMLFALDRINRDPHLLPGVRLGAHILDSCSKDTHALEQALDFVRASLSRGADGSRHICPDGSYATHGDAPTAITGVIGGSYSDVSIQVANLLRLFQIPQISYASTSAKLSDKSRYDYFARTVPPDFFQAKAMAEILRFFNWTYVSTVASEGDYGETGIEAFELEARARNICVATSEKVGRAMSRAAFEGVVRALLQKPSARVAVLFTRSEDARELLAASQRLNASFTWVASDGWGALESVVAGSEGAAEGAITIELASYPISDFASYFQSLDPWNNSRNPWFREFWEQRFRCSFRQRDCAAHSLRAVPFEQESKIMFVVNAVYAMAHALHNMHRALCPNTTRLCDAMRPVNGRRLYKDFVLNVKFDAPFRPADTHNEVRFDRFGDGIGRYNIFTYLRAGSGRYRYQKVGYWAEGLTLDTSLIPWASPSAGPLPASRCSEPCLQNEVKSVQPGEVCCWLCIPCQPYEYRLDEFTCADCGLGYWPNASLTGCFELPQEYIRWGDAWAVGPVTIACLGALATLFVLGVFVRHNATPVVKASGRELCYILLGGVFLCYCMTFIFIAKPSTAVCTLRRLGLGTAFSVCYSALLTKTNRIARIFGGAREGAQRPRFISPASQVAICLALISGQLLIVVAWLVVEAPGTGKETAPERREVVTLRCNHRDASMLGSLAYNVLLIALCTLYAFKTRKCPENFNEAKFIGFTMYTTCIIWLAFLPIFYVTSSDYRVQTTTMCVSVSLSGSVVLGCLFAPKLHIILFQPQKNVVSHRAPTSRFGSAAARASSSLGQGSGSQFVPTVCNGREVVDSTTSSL", "assay": "Antagonist activity at human mGluR2 receptor expressed in CHO cells assessed as inhibition of GIRK current", "assay_type": "functional, cell-based"}, "[4]": {"test_system": "Rattus norvegicus", "assay": "Neurotoxicity in rat assessed as antidepressant-like activity at 1 mg/kg after 35 to 180 mins, po", "assay_type": "toxicity, organism-based", "design": "dose 1 mg/kg, route oral", "conditions": "in vivo"}, "[5]": {"test_system": "Rattus norvegicus", "assay": "Neurotoxicity in rat assessed as effect on spontaneous locomotor activity upto 30 mg/kg, po", "assay_type": "toxicity, organism-based", "design": "dose 30 mg/kg, route oral", "conditions": "in vivo"}, "[6]": {"species": "Rattus norvegicus", "assay": "Induction of working memory impairment in rat by DMTP test", "assay_type": "functional, organism-based"}, "[7]": {"molecular_target": "T1, Metabotropic glutamate receptor 2 (Rattus norvegicus, UniProt P31421)", "T1 sequence (P31421 whole entry)": "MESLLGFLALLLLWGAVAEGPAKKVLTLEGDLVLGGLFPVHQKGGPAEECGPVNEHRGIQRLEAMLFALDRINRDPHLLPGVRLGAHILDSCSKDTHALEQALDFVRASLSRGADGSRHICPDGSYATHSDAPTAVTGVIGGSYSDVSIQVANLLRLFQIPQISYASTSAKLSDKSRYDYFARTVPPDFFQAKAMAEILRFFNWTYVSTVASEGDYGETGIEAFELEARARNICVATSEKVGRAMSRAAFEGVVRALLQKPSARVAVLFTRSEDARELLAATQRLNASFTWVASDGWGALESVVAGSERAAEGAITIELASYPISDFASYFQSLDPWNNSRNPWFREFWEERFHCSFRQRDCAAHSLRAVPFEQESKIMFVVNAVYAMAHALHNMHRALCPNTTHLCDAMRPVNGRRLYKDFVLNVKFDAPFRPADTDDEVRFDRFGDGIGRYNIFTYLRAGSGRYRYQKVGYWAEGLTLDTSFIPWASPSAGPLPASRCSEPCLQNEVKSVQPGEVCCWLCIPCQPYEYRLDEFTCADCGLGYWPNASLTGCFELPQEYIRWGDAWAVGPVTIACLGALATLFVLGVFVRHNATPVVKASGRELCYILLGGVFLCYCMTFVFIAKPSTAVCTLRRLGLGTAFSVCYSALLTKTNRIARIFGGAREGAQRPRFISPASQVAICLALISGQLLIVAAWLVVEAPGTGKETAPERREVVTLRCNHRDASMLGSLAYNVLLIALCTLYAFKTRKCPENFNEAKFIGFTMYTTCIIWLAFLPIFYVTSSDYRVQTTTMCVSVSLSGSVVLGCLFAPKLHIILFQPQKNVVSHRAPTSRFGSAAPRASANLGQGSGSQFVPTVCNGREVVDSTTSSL", "assay": "Partial displacement of [3H]LY354740 from recombinant rat mGluR2"}, "[8]": {"assay": "Ratio of drug level in brain to plasma in rat", "assay_type": "ADME", "conditions": "brain and plasma"}, "[9]": {"assay": "Thermodynamic solubility of the compound at pH 3", "assay_type": "physicochemical", "conditions": "buffer"}, "[10]": {"test_system": "Rattus norvegicus", "assay": "Agonist activity at rat mGluR2 assessed as decrease in spontaneous locomotor activity at 10 mg/kg, sc after 30 mins", "assay_type": "functional, organism-based", "design": "dose 10 mg/kg"}, "[11]": {"test_system": "Rhesus monkey", "assay": "Induction of working memory impairment in Rhesus monkey by DMTP test", "assay_type": "functional, organism-based", "conditions": "Macaca mulatta"}, "[12]": {"test_system": "Rattus norvegicus", "assay": "Neurotoxicity in rat assessed as effect on grip strength upto 30 mg/kg, po", "assay_type": "toxicity, organism-based", "design": "dose 30 mg/kg, route oral", "conditions": "in vivo"}, "[13]": {"species": "Homo sapiens", "assay": "Induction of cognitive impairment in human", "assay_type": "functional, organism-based"}, "[14]": {"test_system": "Rattus norvegicus", "assay": "Neurotoxicity in rat assessed as locomotor activity upto 30 mg/kg, po by rotarod test", "assay_type": "toxicity, organism-based", "design": "dose 30 mg/kg, route oral", "conditions": "in vivo"}, "[15]": {"molecular_target": "T1, Metabotropic glutamate receptor 2", "assay": "Antagonist activity at recombinant rat mGluR2 expressed in forskolin-stimulated CHO cells assessed as inhibition of (1S,3R)-ACPD induced cAMP production", "assay_type": "functional, cell-based"}, "[16]": {"test_system": "Rattus norvegicus", "assay": "Antiamnesic activity in rat assessed as partial inhibition of LY354740-induced impairment of working memory at 3 mg/kg, po by DMTP test", "assay_type": "functional, organism-based", "design": "dose 3 mg/kg"}, "[17]": {"species": "Rattus norvegicus", "assay": "Amnesic activity in rat assessed as latency to response by DMTP test", "assay_type": "functional, organism-based"}, "[18]": {"assay": "Volume of dustribution at steady state in rat at 2.5 mg/kg, iv", "assay_type": "ADME, organism-based", "design": "dose 2.5 mg/kg, route intravenous", "conditions": "in vivo, read-out: Vdss"}, "[19]": {"test_system": "Rattus norvegicus", "assay": "Antagonist activity at rat mGluR3 assessed as inhibition of LY354740-induced hypoactivity at 10 mg/kg, po", "assay_type": "functional, organism-based", "design": "dose 10 mg/kg"}, "[20]": {"test_system": "Rattus norvegicus", "assay": "Antiamnesic activity in rat assessed as partial reversal of scopolamine-induced impairment of working memory at 3 mg/kg, po by DMTP test", "assay_type": "functional, organism-based", "design": "dose 3 mg/kg"}, "[21]": {"species": "Rattus norvegicus", "assay": "Antiamnesic activity in rat assessed as inhibition of LY354740-induced impairment of working memory by DMTP test", "assay_type": "functional, organism-based"}, "[22]": {"test_system": "Liver microsomes", "assay": "Clearance in rat liver microsomes", "assay_type": "ADME, Microsome"}, "[23]": {"test_system": "Rattus norvegicus", "assay": "Antagonist activity at rat mGluR2 assessed as inhibition of LY354740-induced hypoactivity at 10 mg/kg, po", "assay_type": "functional, organism-based", "design": "dose 10 mg/kg"}, "[24]": {"test_system": "Rattus norvegicus", "assay": "Antiamnesic activity in rat assessed as partial inhibition of LY354740-induced impairment of working memory at 10 mg/kg, po by DMTP test", "assay_type": "functional, organism-based", "design": "dose 10 mg/kg"}, "[25]": {"test_system": "Rattus norvegicus", "assay": "Agonist activity at rat mGluR3 assessed as decrease in spontaneous locomotor activity at 10 mg/kg, sc after 30 mins", "assay_type": "functional, organism-based", "design": "dose 10 mg/kg"}, "[26]": {"assay": "Oral bioavailability in rat at 10 mg/kg, po", "assay_type": "ADME, organism-based", "conditions": "in vivo"}, "[27]": {"molecular_target": "Metabotropic glutamate receptor 3 (Rattus norvegicus, UniProt P31422)", "sequence (P31422 whole entry)": "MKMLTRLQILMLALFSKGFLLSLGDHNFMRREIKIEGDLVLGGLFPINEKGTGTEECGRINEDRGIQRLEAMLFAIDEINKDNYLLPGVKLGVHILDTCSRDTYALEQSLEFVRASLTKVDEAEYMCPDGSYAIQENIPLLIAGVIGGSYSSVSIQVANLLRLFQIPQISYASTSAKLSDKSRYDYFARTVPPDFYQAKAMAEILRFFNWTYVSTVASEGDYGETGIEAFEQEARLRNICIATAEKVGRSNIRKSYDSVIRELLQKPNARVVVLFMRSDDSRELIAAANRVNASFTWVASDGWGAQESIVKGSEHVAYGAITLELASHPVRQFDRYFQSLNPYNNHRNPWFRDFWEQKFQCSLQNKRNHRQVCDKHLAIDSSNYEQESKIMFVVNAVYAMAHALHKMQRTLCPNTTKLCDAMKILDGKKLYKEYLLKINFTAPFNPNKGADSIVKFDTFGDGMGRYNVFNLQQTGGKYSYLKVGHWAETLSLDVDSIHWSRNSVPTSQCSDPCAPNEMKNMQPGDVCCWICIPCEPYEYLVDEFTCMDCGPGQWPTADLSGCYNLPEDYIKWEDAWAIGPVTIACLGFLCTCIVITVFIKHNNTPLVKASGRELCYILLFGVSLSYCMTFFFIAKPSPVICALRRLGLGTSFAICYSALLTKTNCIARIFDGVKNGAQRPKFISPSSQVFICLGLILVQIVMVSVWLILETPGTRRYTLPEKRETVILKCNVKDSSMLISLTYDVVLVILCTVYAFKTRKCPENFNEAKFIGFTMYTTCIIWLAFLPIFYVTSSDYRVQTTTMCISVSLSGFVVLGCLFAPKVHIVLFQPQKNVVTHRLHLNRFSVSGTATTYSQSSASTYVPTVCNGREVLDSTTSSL", "assay": "Antagonist activity at rat mGluR3 receptor expressed in CHO cells assessed as inhibition of GIRK current", "assay_type": "functional, cell-based"}, "[28]": {"molecular_target": "T1, Metabotropic glutamate receptor 2", "assay": "Antagonist activity at rat mGluR2 receptor expressed in CHO cells assessed as inhibition of GIRK current", "assay_type": "functional, cell-based"}, "[29]": {"species": "Rattus norvegicus", "assay": "Amnesic activity in rat assessed as missed trials by DMTP test", "assay_type": "functional, organism-based"}, "[30]": {"test_system": "Rattus norvegicus", "assay": "Antiamnesic activity in rat assessed as partial reversal of scopolamine-induced impairment of working memory at 0.06 mg/kg, sc by DMTP test", "assay_type": "functional, organism-based", "design": "dose 0.06 mg/kg"}, "[31]": {"molecular_target": "Cytochrome P450 3A4 (Homo sapiens, UniProt P08684)", "sequence (P08684 whole entry)": "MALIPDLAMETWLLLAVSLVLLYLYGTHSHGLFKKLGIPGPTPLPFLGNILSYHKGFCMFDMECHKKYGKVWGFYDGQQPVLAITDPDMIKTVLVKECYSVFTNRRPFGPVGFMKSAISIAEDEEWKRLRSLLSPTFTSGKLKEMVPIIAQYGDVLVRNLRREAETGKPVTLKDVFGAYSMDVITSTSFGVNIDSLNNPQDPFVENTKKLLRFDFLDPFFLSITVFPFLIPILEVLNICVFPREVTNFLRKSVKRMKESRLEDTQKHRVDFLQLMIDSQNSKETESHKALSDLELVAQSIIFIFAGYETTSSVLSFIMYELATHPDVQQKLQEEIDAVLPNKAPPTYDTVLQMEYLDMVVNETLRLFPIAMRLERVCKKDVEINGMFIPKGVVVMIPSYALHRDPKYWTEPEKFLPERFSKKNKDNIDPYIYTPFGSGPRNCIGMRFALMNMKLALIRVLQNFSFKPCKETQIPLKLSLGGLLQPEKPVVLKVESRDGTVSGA", "assay": "Inhibition of CYP3A4", "assay_type": "ADME"}},
  "note": "Active and inactive are the calls of the source. The rule behind the calls is not given here.",
  "data": [
    {"smiles": "Cc1cc(-c2cccc(C3=Nc4cc(C)c(C(F)(F)F)cc4NC(=O)C3)c2)cc(C)n1", "values": [
      {"measurement": "half-life", "setting": "[1]", "result": 12.8, "unit": "h"},
      {"measurement": "clearance", "setting": "[2]", "result": 0.342, "unit": "L/h/kg"},
      {"measurement": "IC50", "setting": "[3]", "result": 0.014, "unit": "µM"},
      {"measurement": "Activity", "setting": "[4]", "result": "Toxic"},
      {"measurement": "Activity", "setting": "[5]", "result": "Non-toxic"},
      {"measurement": "Activity", "setting": "[6]", "result": "Dose-dependent effect"},
      {"measurement": "IC50", "setting": "[7]", "result": 0.002, "unit": "µM"},
      {"measurement": "Kp", "setting": "[8]", "result": 1.4},
      {"measurement": "solubility thermodynamic", "setting": "[9]", "result": 0.064, "unit": "mg/mL"},
      {"measurement": "Activity", "setting": "[10]", "result": "Dose-dependent effect"},
      {"measurement": "Activity", "setting": "[11]", "result": "Active"},
      {"measurement": "Activity", "setting": "[12]", "result": "Non-toxic"},
      {"measurement": "Activity", "setting": "[13]", "result": "Active"},
      {"measurement": "Activity", "setting": "[14]", "result": "Non-toxic"},
      {"measurement": "IC50", "setting": "[15]", "result": 0.003, "unit": "µM"},
      {"measurement": "Activity", "setting": "[16]", "result": "Dose-dependent effect"},
      {"measurement": "Activity", "setting": "[17]", "result": "Dose-dependent effect"},
      {"measurement": "Vd", "setting": "[18]", "result": 5.8, "unit": "L/kg"},
      {"measurement": "Activity", "setting": "[19]", "result": "Active"},
      {"measurement": "Activity", "setting": "[20]", "result": "Active"},
      {"measurement": "Activity", "setting": "[21]", "result": "Active"},
      {"measurement": "CL", "setting": "[22]", "result": 0.282, "unit": "L/h/kg"},
      {"measurement": "Activity", "setting": "[23]", "result": "Active"},
      {"measurement": "Activity", "setting": "[24]", "result": "Active"},
      {"measurement": "Activity", "setting": "[25]", "result": "Dose-dependent effect"},
      {"measurement": "bioavailability", "setting": "[26]", "result": 52, "unit": "%"},
      {"measurement": "IC50", "setting": "[27]", "result": "< 0.01", "unit": "µM"},
      {"measurement": "IC50", "setting": "[28]", "result": "< 0.01", "unit": "µM"},
      {"measurement": "Activity", "setting": "[29]", "result": "Dose-dependent effect"},
      {"measurement": "Activity", "setting": "[30]", "result": "Active"},
      {"measurement": "IC50", "setting": "[31]", "result": 4.8, "unit": "µM"}
    ]}
  ]
}
